According to ChEMBL document CHEMBL1151893, “Synthesis of analogs of forodesine HCl, a human purine nucleoside phosphorylase inhibitor-Part I” (Bioorg Med Chem Lett, 2009):

The compounds below were run against T1, Purine nucleoside phosphorylase (Homo sapiens, UniProt P00491) (assay: Inhibition of human purine nucleoside phosphorylase).
T1 sequence (P00491 whole entry): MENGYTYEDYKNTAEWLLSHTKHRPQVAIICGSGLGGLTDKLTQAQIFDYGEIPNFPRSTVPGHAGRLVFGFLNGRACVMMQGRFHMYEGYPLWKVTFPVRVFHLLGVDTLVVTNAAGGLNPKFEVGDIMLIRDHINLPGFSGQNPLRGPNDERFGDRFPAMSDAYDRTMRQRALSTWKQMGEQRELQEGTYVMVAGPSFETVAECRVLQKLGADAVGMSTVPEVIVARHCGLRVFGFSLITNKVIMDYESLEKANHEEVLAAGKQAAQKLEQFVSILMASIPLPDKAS

IC50, 100 nM:
O=c1[nH]cnc2cc([C@@H]3N[C@H](CO)[C@@H](O)[C@H]3O)[nH]c12
O=C(O)c1[nH]c2c(=O)[nH]cnc2c1[C@@H]1N[C@H](CO)[C@@H](O)[C@H]1O
O=c1[nH]cnc2c([C@@]3(CO)NC[C@H](O)[C@@H]3O)c[nH]c12
